Reference: US20080051463A1, “ANTHRACENE COMPOUNDS AND THEIR USE FOR TREATING BENIGN AND MALIGNANT TUMOR DISORDERS” (AETERNA ZENTARIS GmbH, priority 2006, published 2008)
≈ marks a conversion by molar mass, not a printed value. Where “and” joins values, the source holds several entries; their conditions need not be identical. Equal entries are not always repeated.

Tests used:
[1] = tested on: human cervical carcinoma cell line KB/HeLa; assay: Proliferation test (cellular dehydrogenase activity), KB/HeLa; type: cell-based
Text: (§1) The antiproliferative activity of the compounds 1, 2, 4, 6, 7, 9, 10, 11, 12 and 13 according to the invention was investigated in a proliferation test performed on established tumor cell lines (D. A. Scuderio et al. Cancer Res. 1988, 48: 4827-4833).
(§2) The test used determines the cellular dehydrogenase activity and makes it possible to determine cell viability and determine cell number indirectly.
(§3) The cell lines used are the human cervical carcinoma cell line KB/HeLa (ATCC CCL17), the ovarian adenocarcinoma cell line SKOV-3 (ATCC HTB77), the human glioblastoma cell line SF-268 (NCI-503138) and the lung carcinoma cell line NCI-H460 (NCI-503473). In addition, an RKOp27 cell system was used for investigating the cell cycle-specific effect of the substance (M. Schmidt et al. Oncogene 2000, 19(20): 2423-9).

[2] = tested on: lung carcinoma cell line NCI-H460; assay: Proliferation test (cellular dehydrogenase activity), NCI-H460; type: cell-based; settings: Homo sapiens
Text: as §1, §2, §3

[3] = tested on: RKOp27 human colon carcinoma cells, p27kiP1 induced; assay: Proliferation test, RKOp27 cell system with induced p27kiP1 expression; type: cell-based; settings: RKOp27 with induced expression of p27kiP1, read-out: RKOP27ind EC50
Text: as §1, §2, §3
(§4) RKO is a human colon carcinoma line in which expression of the cell cycle inhibitor p27^kiP1 can be induced using the ecdysone expression system and lead to cell cycle arrest specifically in […].
(§5) By contrast, cell cycle-specific substances, such as, for example, tubulin inhibitors, are only cytotoxic when cells are not arrested and the cell cycle is passed through.

bovine tubulin = assay: Inhibition of the polymerization of bovine tubulin (in vitro); type: biochemical; settings: 10 μg/ml; tubulin with 30% associated proteins (MAPs); repeat values
Text: In this test, tubulin purified by polymerization and depolymerization cycles is used, which is polymerized by addition of GTP and heating.
Table 1 states the %-inhibition values and Table 2 states the EC50 values of polymerization inhibition of tubulin with 30% associated proteins (MAPs).

[4] = tested on: RKOp27 human colon carcinoma cells; assay: Proliferation test, RKOp27 cell system without p27kiP1 expression; type: cell-based; settings: RKOp27 without expression of p27kiP1
Text: as §1, §2, §3, §4, §5

[5] = tested on: ovarian adenocarcinoma cell line SKOV-3; assay: Proliferation test (cellular dehydrogenase activity), SK-OV-3; type: cell-based; settings: Homo sapiens
Text: as §1, §2, §3

porcine brain tubulin = tested on: T1, porcine brain tubulin; assay: Inhibition of the polymerization of porcine brain tubulin (turbidimetric); type: biochemical; settings: porcine brain tubulin with about 15% MAPs, GTP, 37° C.
T1 construct: In addition to tubulin, the protein used comprises about 15% of associated proteins (MAPs)
Description: b) In an in vitro test, the compounds 1, 2, 4 and 7 were tested for inhibition of the polymerization of porcine brain tubulin. In this test, tubulin purified by polymerization and depolymerization cycles is used (Shelanski et al. Proc. Natl. Acad. Sci. U.S.A. 1973, 70, 765-768 modified according to Vater et al. Acta Histochem. Suppl. 1986, 33, 123-129), which is polymerized by addition of GTP and heating to 37° C. In addition to tubulin, the protein used comprises about 15% of associated proteins (MAPs). The measurement values were determined turbidimetrically according to Gaskin et al. J. Mol. Biol. 89 (1974) 737-755.
Table 3 states the EC50 value of the polymerization inhibition.

[6] = tested on: human glioblastoma cell line SF-268; assay: Proliferation test (cellular dehydrogenase activity), SF-268; type: cell-based
Text: as §1, §2, §3

KB/HeLa cells = assay: Cell cycle analysis (G2/M arrest) in KB/HeLa cells; type: cell-based; settings: Homo sapiens, 24 h, 24 hours at 37° C., 0.1-1000 nM, read-out: EC50 [nM] (50% cells in G2/M)
Description: For the cell cycle analysis, KB/HeLa cells (ATCC CCL17) were treated with different concentrations (0.1-1000 nM) of the test substances at 37° C. for 24 hours.
The percentage of cells arrested in the G2/M phase of the cell cycle after treatment with compounds according to the invention and selected reference substances is shown in Table 9 below. The results were analysed using special analytical software (ModFit™).

Compound	melting point	EC50 [1]	EC50 [2]	EC50 [3]	EC50 [4]	further results
COc1ccc(C(=O)C=C2c3ccccc3C(=O)c3ccccc32)c(O)c1OC [Compound 8, 10-[2-(2-hydroxy-3,4-dimethoxy-phenyl)-2-oxo-ethylidene]-10H-anthracen-9-one]	176 to 178 °C					
O=C(C=C1c2ccccc2C(=O)c2ccccc21)c1cccs1 [Compound 11, 10-(2-oxo-2-thiophen-2-yl-ethylidene)-10H-anthracen-9-one]	126 °C	2.65 µg/mL (≈ 8.38 µM)	1.05 µg/mL (≈ 3.32 µM)	> 3.16 µg/mL		
COc1cc(C(=O)C=C2c3ccccc3C(=O)c3ccccc32)cc(OC)c1OC [Compound 16, 10-[2-oxo-2-(3,4,5-trimethoxy-phenyl)-ethylidene]-10H-anthracen-9-one]	151 to 152 °C					Inhibition at 10 μg/ml [%] (bovine tubulin): 65.0% and 65.5% and 61.9%
COc1ccc(N2CCN(C(=O)C=C3c4ccccc4C(=O)c4ccccc43)CC2)cc1 [Compound 5, 10-{2-[4-(4-methoxy-phenyl)-piperazin-1-yl]-2-oxo-ethylidene}-10H-anthracen-9-one]	189 to 190 °C					
COc1cccc(C(=O)C=C2c3ccccc3C(=O)c3ccccc32)c1 [Compound 13, 10-[2-(3-methoxy-phenyl)-2-oxo-ethylidne]-10H-anthracen-9-one]		1.89 µg/mL (≈ 5.55 µM)	1.16 µg/mL (≈ 3.41 µM)	> 3.16 µg/mL	1.1 µg/mL (≈ 3.23 µM)	Inhibition at 10 μg/ml [%] (bovine tubulin): 72.6% and 85.9% and 87.3% and 93.7%
COc1csc(C(=O)C=C2c3ccccc3C(=O)c3ccccc32)c1 [Compound 2, 10-[2-(4-methoxy-thiophen-2-yl)-2-oxo-ethylidene]-10H-anthracen-9-one]	200 to 201 °C	0.248 µg/mL (≈ 0.716 µM)	0.931 µg/mL (≈ 2.69 µM)	> 3.16 µg/mL	0.802 µg/mL (≈ 2.32 µM)	EC50 [5]: 0.416 µg/mL (≈ 1.2 µM); EC50 of the polymerization inhibition (porcine brain tubulin): 2.3 µg/mL; EC50 [6]: 0.331 µg/mL (≈ 0.956 µM)
COc1ccc(C(=O)C=C2c3ccccc3C(O)c3ccccc32)cc1 (stereo not shown) [Compound 4, 2-(10-hydroxy-10H-anthracen-9-ylidene)-1-(4-methoxy-phenyl)-ethanone]	169 to 172 °C	0.181 µg/mL (≈ 0.529 µM)	0.203 µg/mL (≈ 0.593 µM)	> 3.16 µg/mL	0.108 µg/mL (≈ 0.315 µM)	EC50 [5]: 0.171 µg/mL (≈ 0.499 µM); EC50 of the polymerization inhibition (porcine brain tubulin): 1.2 µg/mL; EC50 [6]: 0.227 µg/mL (≈ 0.663 µM)
O=C(O)C=C1c2ccccc2C(=O)c2ccccc21 [Compound 17, (10-oxo-10H-anthracen-9-ylidene)-acetic acid]	180 to 182 °C					
CC(=O)O[C@H]1C(=O)[C@@]2(C)[C@H]([C@H](OC(=O)c3ccccc3)[C@]3(O)C[C@H](OC(=O)[C@H](O)[C@@H](NC(=O)c4ccccc4)c4ccccc4)C(C)=C1C3(C)C)[C@]1(OC(C)=O)CO[C@@H]1C[C@@H]2O [Paclitaxel]						EC50 (KB/HeLa cells): 26.9 nM
